Experimental data taken from BindingDB's records for doi:10.1016/j.bmcl.2021.128001 (The First Affiliated Hospital of Anhui Medical University, 2021).

biological target: T1, Peptidase (Staphylococcus aureus, UniProt Q7DHH4); assay: Binding affinity to Staphylococcus aureus PBP2a assessed as dissociation constant by SPR assay
T1 sequence (Q7DHH4 whole entry): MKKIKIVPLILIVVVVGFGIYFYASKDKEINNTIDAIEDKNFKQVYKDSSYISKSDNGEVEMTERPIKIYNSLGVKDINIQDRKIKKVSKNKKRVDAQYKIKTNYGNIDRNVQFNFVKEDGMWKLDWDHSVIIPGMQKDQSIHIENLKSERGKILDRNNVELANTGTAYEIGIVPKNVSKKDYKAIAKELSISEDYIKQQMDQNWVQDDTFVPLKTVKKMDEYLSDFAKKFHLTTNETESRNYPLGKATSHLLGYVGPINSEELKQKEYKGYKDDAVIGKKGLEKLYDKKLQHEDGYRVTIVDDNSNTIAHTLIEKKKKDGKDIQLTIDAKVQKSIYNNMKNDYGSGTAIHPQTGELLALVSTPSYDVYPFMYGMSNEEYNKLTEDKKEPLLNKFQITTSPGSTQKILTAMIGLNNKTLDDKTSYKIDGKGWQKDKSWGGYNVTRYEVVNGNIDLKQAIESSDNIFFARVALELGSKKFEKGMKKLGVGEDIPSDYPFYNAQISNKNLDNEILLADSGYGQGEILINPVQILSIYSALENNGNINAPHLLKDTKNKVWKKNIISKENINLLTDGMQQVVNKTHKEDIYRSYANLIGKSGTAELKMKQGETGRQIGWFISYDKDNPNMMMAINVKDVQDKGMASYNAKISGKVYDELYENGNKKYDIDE

| koff | SMILES |
| --- | --- |
| 0.0207 s⁻¹ | COc1cc2c(c(OC)c1OC)-c1ccc(NCC(=O)NCCc3c[nH]c4ccccc34)c(=O)cc1[C@@H](NC(C)=O)CC2 |
| 0.0253 s⁻¹ | Cc1ccc(NC(=O)[C@H](Cc2c[nH]c3ccccc23)NC(=O)C2CCN(C(=O)CNC(=O)OC(C)(C)C)CC2)cc1 |
| 0.0214 s⁻¹ | COc1ccc(-c2cc(=O)oc3c(C)c(OCC(=O)N[C@@H](Cc4c[nH]c5ccc(O)cc45)C(=O)O)ccc23)cc1 |

| SMILES | koff |
| --- | --- |
| COc1ccc(NC(=O)[C@H]2Oc3c(c(=O)oc4ccccc34)[C@@H]2c2ccc(CCCN3CCCC3=O)cc2)cc1 | 0.0284 s⁻¹ |
